Common to all, as to assay: growth of human tumour cells (NCI), 48 h
For assay [1], the system named is CAKI-1 renal.
Assay [2] relates to EKVX NSCLC.
The test system of assay [3] is HCC-2998 colon.
Assay [4] concerns HT29 colon.
Assay [5] deals with KM12 colon.
The subject of assay [6] is M14 melanoma.
Assay [7] concerns OVCAR-3 ovarian.
The test system of assay [8] is RXF 393 renal.
Assay [9] relates to UO-31 renal.

Several values for one entry are separate records, joined by “and”; a condition that tells them apart may be missing. Identical values can stand only once.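 Where inhibition never reached the appropriate level, the endpoint shown equals the highest concentration tested. Otherwise, values were interpolated linearly from a five-concentration, 48-hour dose response in 96-well plates. At the GI50, growth is halved. TGI marks complete inhibition of growth.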

Among the data in PubChem BioAssay (NCI) are TGI and GI50 values, retold here.

In the case of `CSc1nc2nn(Cc3ccccc3)cc2c(=O)[nH]1`, the TGI in assay [1], in assay [2], in assay [3], in assay [4], in assay [5] and in assay [6] was over 100 µM each time. The TGI in assay [7], in assay [8] and in [9] was over 100 µM in each case.
Consider `CC1(C)N=C(N)N=C(N)N1c1ccc(OCCCNC(=O)Nc2cccc(S(=O)(=O)F)c2)c(Cl)c1`, for which the GI50 in [1] is 30.3 µM; in assay [2] it was 20.3 µM; in [3], 8.55 µM; in assay [5], 4.53 µM; in assay [6] it was 3.26 µM; in assay [7], 8.12 µM. Also, the GI50 is 22.2 µM in assay [8] and over 100 µM in assay [9]. Moreover, the TGI in assay [1], in assay [2], in assay [3], in [5], in assay [6] and in assay [7] was over 100 µM in each case. Besides, the TGI in [8] and in assay [9] was over 100 µM throughout.
Take `Clc1cc(Cl)c(OCCCCCCN2CCNCC2)c(Cl)c1`: the GI50 in [1] is 2.09 µM; in assay [2], 9.45 µM; in [3], 2 µM; in assay [4], 1.96 µM; in assay [5], 1.8 µM; in assay [6], 1.84 µM. Further, the GI50 in assay [7] was 2.76 µM; in assay [8], 1.7 µM; in assay [9], 2 µM. In addition, the TGI in assay [1] was 6.39 µM; in assay [2], 22.3 µM; in assay [3], 4.1 µM; in assay [4], 4.3 µM; in assay [5], 3.6 µM; in assay [6] it was 3.65 µM. In addition, the figures for the TGI in assay [7], in assay [8] and in assay [9] were 9.05 µM, 5.07 µM and 5.44 µM, respectively.
As for `Cc1[nH]c2ccccc2c1CC/C(=N\Nc1ccccc1)c1ccccc1`, the TGI in [1], in [2], in assay [3], in assay [4], in [5] and in [6] was over 100 µM each time. The TGI in assay [7], in [8] and in assay [9] was over 100 µM in each case.
On to `COc1cccc(-c2cc(=O)c3cc(N4CCOCC4)ccc3[nH]2)c1`, for which the TGI in assay [1] was over 100 µM; in assay [2] it was over 100 µM; in assay [3], 0.433 µM and 0.0581 µM; in [4], 0.883 µM and 0.125 µM; in assay [6], over 100 µM; in assay [7] it was 0.0412 µM. The same compound displayed a TGI in assay [9] of over 100 µM. For the same compound, the GI50 in [2] is 0.0608 µM; in assay [3], 0.0236 µM; in [4], 0.0359 µM and 0.029 µM; in assay [5] it was 0.0243 µM; in assay [6] it was 0.0365 µM and 0.0749 µM; in assay [9], 0.0713 µM.
`CCOc1ccc(/C=C/c2cc(OC)c(OC)c(OC)c2)cc1`: the TGI in assay [1] was 24.1 µM; in [2], over 100 µM; in [3] it was 6.32 µM; in [4], over 100 µM; in assay [5], over 41.6 µM; in assay [6], 5.29 µM. The TGI in assay [7] was 1.88 µM; in [8] it was 5 µM; in assay [9], over 100 µM. Besides, the GI50 in assay [8] was 0.448 µM.
With `C[C@@H](NS(=O)(=O)c1ccc(NC(=O)c2ccccc2)cc1)C(=O)O`, the TGI in assay [1], in [2], in assay [3], in assay [4], in [5] and in [6] was over 100 µM throughout. In addition, the TGI in assay [7], in assay [8] and in [9] was over 100 µM in each case.
As for `OCC[N+]12CCCN1CCC2`, the TGI in [1], in assay [2], in assay [3], in assay [4], in assay [5] and in assay [6] was over 100 µM each time. For the same compound, the TGI in assay [7], in assay [8] and in assay [9] was over 100 µM throughout.
As to `CN(C)CCC(CCN(C)C)=NO`, the TGI in assay [1], in [2], in assay [3], in assay [4], in assay [5] and in [6] was over 100 µM each time. Moreover, the TGI in assay [7], in [8] and in assay [9] was over 100 µM each time.
With `CCOC(=O)C(CCC(N)=O)(CCC(=O)OC)C(=O)OCC`, the TGI in assay [1], in [2], in assay [3], in assay [4], in [5] and in assay [6] was over 100 µM throughout. Further, the TGI in assay [7], in assay [8] and in assay [9] was over 100 µM in each case.
Take `COC(=O)c1ncc2c(=O)[nH]c3ccccc3c2c1C(=O)OC`: the TGI in [1], in assay [2], in assay [3], in assay [4], in [5] and in assay [6] was over 100 µM in each case. Moreover, the TGI in assay [7], in assay [8] and in [9] was over 100 µM in each case.
Consider `CC(=O)O[C@H]1CCN2C(=O)C=CC(OCc3ccccc3)C12` (stereo partly specified), for which the TGI in [1], in assay [2], in assay [3], in assay [4], in assay [5] and in assay [6] was over 100 µM each time. Moreover, the TGI in [7] and in [9] was over 100 µM each time.
With `O=C(/C=C/c1ccccc1O)c1ccc([N+](=O)[O-])cc1`, the TGI in [1] came out at 39.1 µM; in assay [2], 43.4 µM; in [3] it was 30.1 µM; in assay [4] it was 36.7 µM; in assay [5], 40.4 µM; in assay [6], 52.2 µM. In addition, the results for the TGI in [7], in [8] and in [9] were 25.5 µM, 24.3 µM and 33.2 µM, respectively.
Regarding `C=CC(=O)NC(N)=NC#N`, the values for the GI50 in [1] and in assay [8] were 171 µM and 149 µM, respectively. The TGI in assay [1] is 361 µM; in assay [3], 329 µM; in assay [4], 372 µM; in assay [6] it was 292 µM; in [7], 310 µM; in assay [8], 98.1 µM and 286 µM. Further, the TGI in [9] was 333 µM.
For the compound `O=C1C(=C([O-])c2ccccc2)C(=O)c2ccccc21.O=C1C(=C([O-])c2ccccc2)C(=O)c2ccccc21.[Mn+2]`, the GI50 was over 100 µM in [1]; over 100 µM in assay [2]; over 100 µM in assay [3]; 43.2 µM in [4]; 72.9 µM in assay [5]; 70.4 µM in assay [6]. Moreover, the GI50 in assay [7] was 40.5 µM; in assay [8], 89.6 µM; in [9], 43.9 µM. Also, the TGI in assay [1], in assay [2], in [3], in assay [4], in assay [5] and in assay [6] was over 100 µM each time. The TGI in assay [7], in [8] and in assay [9] was over 100 µM each time.
With `N#CCC(=O)N/N=C1/C(=O)N(c2cc(Cl)ccc2Cl)C(=O)C(=O)C1c1nc2ccccc2s1` (stereo unspecified), the TGI in assay [1] was 94.4 µM; in assay [2] it was over 100 µM; in assay [3] it was over 100 µM; in assay [4], over 100 µM; in assay [5], over 100 µM; in [6], over 100 µM. For the same compound, the results for the TGI in assay [7], in [8] and in assay [9] were over 100 µM, 28.5 µM and over 100 µM, respectively.
Regarding `CC(C)(C)C(=O)Nc1cccc2oc(-c3ccccc3)cc12`, the TGI in assay [1], in assay [2], in assay [3], in assay [4], in [5] and in [6] was over 100 µM each time. Moreover, the TGI in assay [7], in [8] and in assay [9] was over 100 µM in each case.
As for `Cn1c2c(c3ccccc31)CCN(CCCCN1CCN(c3ccccc3)CC1)C2=O`, the TGI in [1] was 98.5 µM; in assay [2], over 71.9 µM; in [3], 31.7 µM; in assay [4], 25.4 µM; in assay [5] it was over 89.9 µM; in [6] it was 16.9 µM. Besides, the TGI in assay [7] is over 100 µM; in assay [8] it was 76.4 µM; in assay [9], over 80.9 µM.
For the compound `O=C(OCCCl)C1OC(n2cc(F)c(=O)[nH]c2=O)CC1O` (stereo unspecified), the TGI in [2], in assay [3], in assay [4], in assay [5], in assay [6] and in assay [7] was over 100 µM in each case. In addition, the TGI in [8] and in [9] was over 100 µM throughout.
For the compound `CC(C)(C)c1cc(CCCCCCCC2(CCCCCCCc3cc(C(C)(C)C)cc(C(C)(C)C)c3)OC(COCCOCCCCCC#N)C(COCCOCCCCCC#N)O2)cc(C(C)(C)C)c1` (stereo unspecified), the TGI in [1], in assay [2], in assay [3], in assay [4], in assay [5] and in assay [6] was over 100 µM in each case. Also, the TGI in [7], in [8] and in assay [9] was over 100 µM in each case.
`Cc1ccc(/C=C(\NC(=O)c2ccccc2)c2nc3ccccc3[nH]2)cc1`: the TGI in [2], in [3], in assay [4], in assay [5], in assay [6] and in [7] was over 100 µM in each case. Moreover, the TGI in assay [8] and in assay [9] was over 100 µM throughout.
Consider `Cc1ccc(NC(=O)CC/C(CC(=O)C(C)(C)C)=N\NC(=O)C[n+]2ccccc2)cc1C`, for which the TGI in assay [1], in assay [2], in assay [3], in assay [4], in assay [5] and in [6] was over 100 µM throughout. Further, the TGI in [7], in assay [8] and in assay [9] was over 100 µM in each case.
On to `O=C(Cc1nc2ccccc2o1)C(=O)Nc1cccc(Cl)c1`, for which the TGI in assay [1], in [2], in assay [3], in [4], in [5] and in assay [6] was over 100 µM each time. The TGI in assay [7], in assay [8] and in assay [9] was over 100 µM throughout.
Take `NC1CCCCC1N.O=C1C=C/C(=C(/c2ccc(O)c(Br)c2)c2ccccc2S(=O)(=O)[O-])C=C1Br.O=C1C=C/C(=C(/c2ccc(O)c(Br)c2)c2ccccc2S(=O)(=O)[O-])C=C1Br.[Pt+4]`: the GI50 in [2] is 93 µM; in assay [3] it was 4.66 µM; in assay [4], 1.67 µM; in assay [5], 32.6 µM; in [6], 7.77 µM; in assay [7] it was 13.8 µM. Moreover, the GI50 was 19.8 µM in assay [8] and 8.03 µM in assay [9]. Also, the TGI in assay [2], in assay [3], in [4], in [5], in [6] and in assay [7] was over 100 µM each time. Also, the TGI in assay [8] is 89.7 µM; in assay [9], over 100 µM.
In the case of `O=C(N/C(=C\c1cccc([N+](=O)[O-])c1)c1nc2ccccc2[nH]1)c1ccccc1`, the TGI in [1], in assay [2], in [3], in [4], in [5] and in assay [6] was over 100 µM each time. For the same compound, the TGI is over 100 µM in assay [7] and 69.4 µM in assay [9].
`CC1=NN(C(=O)Nc2ccc(Cl)cc2)C(=O)C2CCC(=O)N12` (stereo unspecified): the TGI in assay [1], in assay [2], in assay [3], in [5], in assay [6] and in assay [7] was over 100 µM in each case. The TGI in assay [8] and in assay [9] was over 100 µM throughout.
